SMILES strings stand for the structures. Bounds are passed on as bounds.

Consider 62 compounds from a melting point compilation (Tetko et al.; mined from patent text by program, amines drawn as free bases though some values may be those of a salt).

`CCOC(=O)COc1cc(C)c(C)c2c1CCC2=O` registered a melting point of 100 to 101 °C.
The result for `CC1Cc2cc3c(cc2C(c2ccc([N+](=O)[O-])cc2)=NN1C(=O)C(C)(C)C)OCO3` (configuration not stated) reads 164 to 166 °C; that for `COC(=O)c1cc(-c2ccc(OC)c(OC)c2)nn(CC(C)C)c1=O`, 104 to 106 °C.
`CCCCCCCCCCCCNC(=O)c1ccccc1N` showed a melting point of 73 to 75 °C.
As for `COc1cc(CCCC2OC(=O)NC2=O)ccc1OCc1nc(-c2ccccc2)oc1C` (configuration not stated), the figure is 161 to 162 °C.
For `CC(C)(C1OCCO1)C(O)(Cn1cncn1)c1ccc(F)cc1` (configuration not stated), the melting point was 90 °C.
The result for `CCOC(=O)/C(=N\OCC(=O)N(CC)CC)c1csc(N)n1` reads 161 °C.
As for `Nc1nc(Nc2ccccc2)c2ncn(C3CC(F)C(CO)O3)c2n1` (configuration not stated), the figure is 193 to 194 °C; as for `CCc1noc(-c2ncn(-c3cccc(Cl)c3)c2COC)n1`, 125 to 126 °C.
As to `CN1CCN(Cc2c(C(=O)O)nc3c(=O)[nH]c4cc(C(F)(F)F)ccc4n23)CC1`, the melting point is greater than 240 °C.
As for `CCC(=O)c1cc2c(c(Cl)c1O)OC(C(=O)O)C2` (configuration not stated), the figure is 227 to 229 °C; as for `O=c1[nH]c2ccc(C(F)(F)F)cc2c(-c2cc(Cl)ccc2O)c1CCO`, 253 to 255 °C; as for `CNC(=O)N1CC(C)(C)NC(C)(C)CC1=O`, 147 to 149 °C.
Take `CCOC(=O)Cc1c[nH]c2cc(C(F)(F)F)nn2c1=O`: the melting point is 290 to 293 °C.
`O=C(C=Cc1ccc(O)c([N+](=O)[O-])c1)NC12CC3CC(CC(C3)C1)C2` yielded a melting point of 162 to 163 °C.
As for `COc1cccc(C(=O)Nc2ccc3sc(C)nc3c2Cl)c1`, the melting point fell in the range of 177 to 179 °C.
`CC(c1oc2ccccc2c(=O)c1-c1cccc(F)c1)n1nc(-c2ccc(F)c(O)c2)c2c(N)ncnc21` (configuration not stated): the melting point was in the range of 241 to 244 °C.
As for `CCOc1ccc([N+](=O)[O-])cc1NC(C)=O`, the figure is 195 to 198 °C; as for `N#Cc1c(N2CCN(C(=O)c3cccs3)CC2)c2ccsc2n(Cc2ccccc2)c1=O`, 257 °C; as for `CC(=O)Nc1ccc(OC2SCC(OC(C)=O)C(OC(C)=O)C2OC(C)=O)cn1` (configuration not stated), 132 to 133 °C.
In turn, `COc1ccc(C2=NN(c3ccc(CC(=O)O)cc3)C(=O)C(C)(C)C2)cc1OC` had a melting point of 186 to 188 °C.
As to `COc1cc(C(=O)n2c3c(c4ccccc42)CC(C(=O)O)(C(=O)O)CC3)cc(OC)c1OC`, the melting point turned out to be 208 °C.
The result for `O=C(O)c1cccnc1Oc1ccc(-c2nnn[nH]2)cc1` reads 225 to 230 °C; that for `CCOC(=O)C1=C(C)NC(C)=C(C(=O)OCCN2CCN(C(c3ccc(C)cc3)c3ccc(C)cc3)CC2)C1c1ccc(C#N)cc1` (configuration not stated), 93 to 96 °C; that for `COc1ccccc1NC(=O)Nc1ccc(C2=CCN(C(=O)Nc3ccc(OCCO)cc3Cl)CC2)cc1`, 120 to 125 °C.
The result for `CN(C)C(=O)OC1CCN(c2ncc(-c3ccccc3Cl)cn2)CC1` reads 86 to 88 °C.
As for `Nc1cc(=O)[nH]c(=O)n1-c1ccccc1`, the figure is greater than 280 °C; as for `CCOc1n[nH]cc1C(=O)NCc1ccc(Cl)cc1Cl`, 197 to 198 °C; as for `CCCc1c(OCc2cc(Br)cn3c(=O)c(CCC(=O)O)cnc23)ccc(C(C)=O)c1O`, 239 to 242 °C.
Turning to `COC(=O)CC(CSc1nc2ccccc2s1)C(=O)OC` (configuration not stated), the melting point was 46 to 47 °C.
With `Nc1ccc(-c2cnns2)cc1`, the melting point lay in the range of 126 to 128 °C.
As for `CCCCCCCc1ccc(C=Nc2ccc(C#N)cc2)cc1`, the figure is 32.7 to 33 °C.
`Cc1cc(N2N=CCNC2=O)cc(Cl)c1Sc1nccn1C` had a melting point of 173 to 174 °C.
As for `Oc1ccc(-c2nnc(CSCCOc3ccccc3)n2Cc2ccccc2)cc1`, the figure is 64 to 66 °C.
Consider `CC(C#N)(c1ccc(Cl)c(C(F)(F)F)c1)c1ccc(N)cc1Cl` (configuration not stated), for which the melting point is 180 °C.
Compound `CC(=O)OCCN1C(=O)C(=Cc2cc(C(C)(C)C)c(O)c(C(C)(C)C)c2)SC1=S` had a melting point of 140 to 143 °C.
The result for `CCCCCCCCCCCOc1cc(C(=O)O)ccc1CO` reads 82 to 83 °C; that for `CC(C)N1C(=O)NC(c2ccc3c(c2)CCC3)c2cc3c(cc21)OCO3` (configuration not stated), 146 to 148 °C; that for `CCc1ccccc1-c1cccc2[nH]c(C(=O)O)cc12`, 230 to 233 °C.
The result for `FC(F)(F)c1cccc(N=C2SCCN2C(=S)Nc2cccc(C(F)(F)F)c2)c1` reads 116 to 117 °C; that for `CCOC(=O)c1c(OC)nc2c(C)cc(C)cc2c1-c1ccccc1Cl`, 135 to 136 °C; that for `CC(NC(=C(C#N)S(=O)(=O)c1ccc(Cl)cc1)N(C)c1cc(C(F)(F)F)cc(C(F)(F)F)c1)C(C)(C)C` (configuration not stated), 152 to 154 °C.
As for `CCCn1nc(C(C)C)c(C(=O)OC(C)OC(=O)OC2CCCCC2)c1Cc1ccc(-c2ccccc2-c2nnn[nH]2)cc1` (configuration not stated), the melting point fell in the range of 79 to 83 °C.
The result for `CC(O)c1occc(=O)c1O` (configuration not stated) reads 131 to 132 °C.
As for `O=Cc1cccc2cncn12`, the figure is 138 to 140 °C; as for `COc1cccc(CC(=O)NCc2ccccc2Cl)c1`, 89 to 91 °C.
`Cc1cc(C(N)=O)ncc1C(c1c(F)ccc(F)c1F)S(=O)(=O)CCC(C)(F)F` (configuration not stated) had a melting point of 165 to 166 °C.
With `Cc1c(C(=O)N[C@H](C)[C@](O)(Cn2cncn2)c2ccc(F)cc2F)cnn1-c1cccc(C(F)(F)F)c1`, the melting point lay in the range of 146 to 147 °C.
Compound `COc1ccc(-c2cccc(C=CC(=O)Nc3ccc(CN4CCCCC4)cc3)c2)cc1` came in with a melting point of 150 to 151 °C.
As for `COC(=O)C(OC)(c1ccccc1)c1nc(OC)cc(OC)n1` (configuration not stated), the figure is 72 to 76 °C.
As for `O=CNNc1ccccc1NC(=S)Nc1ccccc1`, the figure is 224 to 226 °C; as for `O=C1c2ccccc2C(OCC2CO2)N1c1ccccc1` (configuration not stated), 76 °C; as for `Cc1cc(CNC(=O)C(=O)NCCc2ccccn2)c(C)o1`, 112 to 115 °C.
The result for `CC(=O)OCC(=O)C1CCC2C3CCC4CC(O)C(N5CCOC(C)(C)C5)CC4(C)C3C(=O)CC12C` (configuration not stated) reads 158 to 160 °C.
In turn, `CCN(CC)c1ccc(-c2ccc3c(c2)C=C(C(=O)Nc2ccc(CN(C)C4CCOCC4)cc2)CCS3(=O)=O)cc1` registered a melting point of 240 to 246 °C.
Take `Cn1cnc(COc2nn3c(-c4ccc(F)cc4)nnc3cc2-c2ccccc2)n1`: the melting point lay in the range of 233 to 235 °C.
In turn, `Cc1nc(-n2cc(CCc3ccccc3)nn2)sc1C(=O)NCc1cccnc1` showed a melting point of 114 to 116 °C.
As for `O=[N+]([O-])c1ccc(SSc2nc3ccccc3s2)c(C(Cl)(Cl)Cl)c1`, the figure is 97 °C.
For the compound `O=C(c1ccccc1)N1Cc2ccccc2Oc2ccc(Cl)cc21`, the melting point lay in the range of 103 to 106 °C.
As to `CC(C)(C)c1ccc(-c2nc(NC(=O)c3cccnc3)sc2-c2ccncc2)cc1`, the melting point was in the range of 326 to 328 °C.
Consider `Cc1nc(N2CCN(CCCc3ccccc3)C2=O)sc1C(=O)NCc1cccnc1`, for which the melting point fell in the range of 127 to 128 °C.
`CC(=O)OC1CSC(Oc2c(C)ccnc2-c2cccnc2)C(OC(C)=O)C1OC(C)=O` (configuration not stated) registered a melting point of 143 °C.

The term melting point denotes the temperature of the solid-liquid transition.
